Assay results taken from patent publication US20250230193A1, “CYCLIC COMPOUND HAVING SELECTIVE KRAS INHIBITORY EFFECT ON HRAS AND NRAS” (CHUGAI SEIYAKU KABUSHIKI KAISHA, priority 2022, published 2025).

Assays:
[1] = target: GDP-bound KRAS wild-type protein (Homo sapiens, UniProt P01116); assay: Binding to KRAS by surface plasmon resonance (SPR), Single Cycle Kinetics; conditions: SPR, Single Cycle Kinetics; GDP-bound KRAS wild-type protein
[2] = target: GDP-bound NRAS wild-type protein (Homo sapiens, UniProt P01111); assay: Binding to NRAS by surface plasmon resonance (SPR), Single Cycle Kinetics; conditions: SPR; KD ratio class
GDP-bound NRAS wild-type protein, sequence (P01111 whole entry): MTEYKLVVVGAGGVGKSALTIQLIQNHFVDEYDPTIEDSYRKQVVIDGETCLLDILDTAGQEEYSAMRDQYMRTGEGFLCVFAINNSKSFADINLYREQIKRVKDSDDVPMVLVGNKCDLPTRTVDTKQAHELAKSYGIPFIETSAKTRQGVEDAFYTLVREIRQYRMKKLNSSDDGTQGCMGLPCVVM

[3] = target: GDP-bound HRAS wild-type protein (Homo sapiens, UniProt P01112); assay: Binding to HRAS by surface plasmon resonance (SPR), Single Cycle Kinetics; conditions: SPR; KD ratio class
GDP-bound HRAS wild-type protein, sequence (P01112 whole entry): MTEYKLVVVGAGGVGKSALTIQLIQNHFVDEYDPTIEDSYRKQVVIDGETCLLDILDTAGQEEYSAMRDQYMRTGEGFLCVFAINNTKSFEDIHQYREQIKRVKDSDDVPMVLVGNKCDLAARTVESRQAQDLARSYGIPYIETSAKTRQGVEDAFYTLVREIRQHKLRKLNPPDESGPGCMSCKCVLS

[4] = tested on: human lung cancer strain NCI-H441; conditions: read-out: NCI-H441 IC50; NCI-H441 cells, 4 days, CellTiter-Glo

Compound	Kd [1] [nM]	IC50 [4] [nM]	NRAS/KRAS (ratio of KD value for GDP-bound NRAS wild-type protein to KD value for KRAS) [2]	HRAS/KRAS (ratio of KD value for GDP-bound HRAS wild-type protein to KD value for KRAS) [3]
CCO[C@@H]1C[C@H]2C(=O)NC3(CCC3)C(=O)N(C)[C@@H](C3CCCC3)C(=O)N(C)[C@H](C(=O)N(C)C)CC(=O)N(C)[C@@H](CSC)C(=O)N[C@@H]([C@@H](C)CC)C(=O)N(C)CC(=O)N(C)[C@H]3C/C=C\CCN(C3=O)[C@@H](CC3CCCCC3)C(=O)N(C)CC(=O)N[C@@H](CCc3cc(F)c(C(F)(F)F)c(F)c3)C(=O)N2C1 [PP1463]	0.13	44.5	A (a compound having 10 or more and less than 20 is denoted as A)	A (a compound having 10 or more and less than 20 is denoted as A)
CCC[C@H]1C(=O)N[C@@H]([C@@H](C)CC)C(=O)N(C)CC(=O)N(C)[C@H]2C/C=C\CCN(C2=O)[C@@H](CC2CCCCC2)C(=O)N(C)CC(=O)N[C@@H](CCc2cc(F)c(C(F)(F)F)c(F)c2)C(=O)N2C[C@H](OCC)C[C@H]2C(=O)NC2(CCC2)C(=O)N(C)[C@@H](C2CCCC2)C(=O)N(C)[C@H](C(=O)N(C)C)CC(=O)N1C [PP1464]	0.15	32.3	A (a compound having 10 or more and less than 20 is denoted as A)	A (a compound having 10 or more and less than 20 is denoted as A)
CCO[C@@H]1C[C@H]2C(=O)NC3(CCC3)C(=O)N(C)[C@@H](C3CCCC3)C(=O)N(C)[C@H](C(=O)N(C)C)CC(=O)N(C)[C@@H](CC(C)C)C(=O)N[C@@H]([C@@H](C)CC)C(=O)N(C)CC(=O)N(C)[C@H]3C/C=C\CCN(C3=O)[C@@H](Cc3ccc(F)cc3)C(=O)N(C)CC(=O)N[C@@H](CCc3cc(F)c(C(F)(F)F)c(F)c3)C(=O)N2C1 [PP1488]	0.081	23.2	A (a compound having 10 or more and less than 20 is denoted as A)	B (a compound having 3 or more and less than 10 is denoted as B)
CC[C@H](C)[C@@H]1NC(=O)[C@H](CC2CC2)N(C)C(=O)C[C@@H](C(=O)N(C)C)N(C)C(=O)[C@H](C2CCCC2)N(C)C(=O)C2(CCC2)NC(=O)[C@@H]2C[C@@H](F)CN2C(=O)[C@H](CCc2cc(F)c(C(F)(F)F)c(F)c2)NC(=O)CN(C)C(=O)[C@H](Cc2ccc(C(F)(F)F)cc2)N2CC/C=C\C[C@@H](C2=O)N(C)C(=O)CN(C)C1=O [PP1497]	0.022	10.7	A (a compound having 10 or more and less than 20 is denoted as A)	A (a compound having 10 or more and less than 20 is denoted as A)
CC[C@H](C)[C@@H]1NC(=O)[C@H](CC2CC2)N(C)C(=O)C[C@@H](C(=O)N(C)C)N(C)C(=O)[C@H](C2CCCC2)N(C)C(=O)C2(CCC2)NC(=O)[C@@H]2C[C@@H](C(F)(F)F)CN2C(=O)[C@H](CCc2cc(F)c(C(F)(F)F)c(F)c2)NC(=O)CN(C)C(=O)[C@H](Cc2ccc(C(F)(F)F)cc2)N2CC/C=C\C[C@@H](C2=O)N(C)C(=O)CN(C)C1=O [PP1498]	0.069	10.3	A (a compound having 10 or more and less than 20 is denoted as A)	A (a compound having 10 or more and less than 20 is denoted as A)
CC[C@H](C)[C@@H]1NC(=O)[C@H](CC2CC2)N(C)C(=O)C[C@@H](C(=O)N2CCCC2)N(C)C(=O)[C@H](C2CCCC2)N(C)C(=O)C2(CCC2)NC(=O)[C@@H]2C[C@H](C)CN2C(=O)[C@H](CCc2cc(F)c(C(F)(F)F)c(F)c2)NC(=O)CN(C)C(=O)[C@H](Cc2ccc(C(F)(F)F)cc2)N2CC/C=C\C[C@@H](C2=O)N(C)C(=O)CN(C)C1=O [PP1510]	0.11	34.5	AA (a compound having 20 or more is denoted as AA)	A (a compound having 10 or more and less than 20 is denoted as A)
CC[C@H](C)[C@@H]1NC(=O)[C@H](CC2CC2)N(C)C(=O)C[C@@H](C(=O)N(C)C)N(C)C(=O)[C@H](C2CCCC2)N(C)C(=O)C2(CCCC2)NC(=O)[C@@H]2C[C@H](C)CN2C(=O)[C@H](CCc2cc(F)c(C(F)(F)F)c(F)c2)NC(=O)CN(C)C(=O)[C@H](Cc2ccc(C(F)(F)F)cc2)N2CC/C=C\C[C@@H](C2=O)N(C)C(=O)CN(C)C1=O [PP1511]	0.099	13.7	AA (a compound having 20 or more is denoted as AA)	A (a compound having 10 or more and less than 20 is denoted as A)

Continued, in another order:

Kd [1] [nM]	IC50 [4] [nM]	Compound	NRAS/KRAS (ratio of KD value for GDP-bound NRAS wild-type protein to KD value for KRAS) [2]	HRAS/KRAS (ratio of KD value for GDP-bound HRAS wild-type protein to KD value for KRAS) [3]
0.14	61.1	CC[C@H](C)[C@@H]1NC(=O)[C@H](CC)N(C)C(=O)C[C@@H](C(=O)N(C)C)N(C)C(=O)[C@H](C2CCCC2)N(C)C(=O)C2(CCC2)NC(=O)[C@@H]2C[C@@H](C(F)(F)F)CN2C(=O)[C@H](CCc2cc(F)c(C(F)(F)F)c(F)c2)NC(=O)CN(C)C(=O)[C@H](CC2CCC(F)(F)CC2)N2CC/C=C\C[C@@H](C2=O)N(C)C(=O)CN(C)C1=O [PP1451]	A (a compound having 10 or more and less than 20 is denoted as A)	A (a compound having 10 or more and less than 20 is denoted as A)
0.096	15.2	C=CC[C@H]1C(=O)N[C@@H]([C@@H](C)CC)C(=O)N(C)CC(=O)N(C)[C@H]2C/C=C\CCN(C2=O)[C@@H](CC2CCC(F)(F)CC2)C(=O)N(C)CC(=O)N[C@@H](CCc2cc(F)c(C(F)(F)F)c(F)c2)C(=O)N2C[C@H](OCC)C[C@H]2C(=O)NC2(CCC2)C(=O)N(C)[C@@H](C2CCCC2)C(=O)N(C)[C@H](C(=O)N(C)C)CC(=O)N1C [PP1454]	A (a compound having 10 or more and less than 20 is denoted as A)	A (a compound having 10 or more and less than 20 is denoted as A)
0.12	90	CCO[C@@H]1C[C@H]2C(=O)NC3(CCCC3)C(=O)N(C)[C@@H](C3CCCC3)C(=O)N(C)[C@H](C(=O)N(C)C)CC(=O)N(C)[C@@H](C)C(=O)N[C@@H]([C@@H](C)CC)C(=O)N(C)CC(=O)N(C)[C@H]3C/C=C\CCN(C3=O)[C@@H](CC3CCC(F)(F)CC3)C(=O)N(C)CC(=O)N[C@@H](CCc3cc(F)c(C(F)(F)F)c(F)c3)C(=O)N2C1 [PP1456]	A (a compound having 10 or more and less than 20 is denoted as A)	A (a compound having 10 or more and less than 20 is denoted as A)
0.15	30.4	CC[C@H](C)[C@@H]1NC(=O)[C@H](CC)N(C)C(=O)C[C@@H](C(=O)N(C)C)N(C)C(=O)[C@H](C2CCCC2)N(C)C(=O)C2(CCC2)NC(=O)[C@@H]2C[C@H](C)CN2C(=O)[C@H](CCc2cc(F)c(C(F)(F)F)c(F)c2)NC(=O)CN(C)C(=O)[C@H](CC2CCC(F)(F)CC2)N2CC/C=C\C[C@@H](C2=O)N(C)C(=O)CN(C)C1=O [PP1457]	A (a compound having 10 or more and less than 20 is denoted as A)	A (a compound having 10 or more and less than 20 is denoted as A)
0.12	27.5	CC[C@H](C)[C@@H]1NC(=O)[C@H](CC)N(C)C(=O)C[C@@H](C(=O)N(C)C)N(C)C(=O)[C@H](C2CCCC2)N(C)C(=O)C2(CCC2)NC(=O)[C@@H]2CC(F)(F)CN2C(=O)[C@H](CCc2cc(F)c(C(F)(F)F)c(F)c2)NC(=O)CN(C)C(=O)[C@H](CC2CCCCC2)N2CC/C=C\C[C@@H](C2=O)N(C)C(=O)CN(C)C1=O [PP1462]	A (a compound having 10 or more and less than 20 is denoted as A)	A (a compound having 10 or more and less than 20 is denoted as A)
0.14	33.2	CCO[C@@H]1C[C@H]2C(=O)NC3(CCC3)C(=O)N(C)[C@@H](C3CCCC3)C(=O)N(C)[C@H](C(=O)N(C)C)CC(=O)N(C)[C@@H](CC)C(=O)N[C@@H]([C@@H](C)CC)C(=O)N(C)CC(=O)N(C)[C@H]3C/C=C\CCN(C3=O)[C@@H](CC3CCCCC3)C(=O)N(C)CC(=O)N[C@@H](CCc3cc(F)c(C(F)(F)F)c(F)c3)C(=O)N2C1 [PP1466]	A (a compound having 10 or more and less than 20 is denoted as A)	A (a compound having 10 or more and less than 20 is denoted as A)
